Source: publication PMC11054487, “Species-Specific Unbound Fraction Differences in Highly Bound PFAS: A Comparative Study across Human, Rat, and Mouse Plasma and Albumin” (Toxics, 2024)

Experiments:
rat serum albumin (RSA) = rat serum albumin (RSA) (Rattus norvegicus, UniProt P02770); test: Presaturation equilibrium dialysis, fraction unbound in rat serum albumin solution; settings: for fraction unbound at 18 h, 5 µM: rat
Procedure: (§1) The equilibrium dialysis device (EQD) HTD96 (Gales Ferry, CT, USA) was assembled according to manufacturer instructions. DPBS buffer solutions were prepared by adding PFAS with a concentration of either approximately five-fold of the estimated fu values based on initial available data or assumed to be 0.001 if no data was available. The dialysis apparatus and membranes assembled were pre-saturated (250 µL) three times in total with PFAS spiked DPBS buffer solution; twice for 1 h followed by a final 18-h pre-saturation. This same solution was used on the receiver side of the EQD. […] This 4% albumin was used in the albumin binding study to recapitulate plasma concentration, as human albumin concentration in plasma is 3.5–4.5 g/dL (530–680 µM). The matrix was diluted five-fold using DPBS for PFAS that had preliminary fu values lower than 0.01. Dimethylsulfoxide (DMSO) stock solutions of test PFAS were prepared at 500 μM and added to species-specific plasma or 4% albumin to a final concentration of 5 μM with 1% DMSO. Next, 150 μL of PFAS spiked DPBS was added to the receiver side of the membrane and 150 μL of compound spiked matrix was added to the donor side. […] Each PFAS:matrix combination was assessed in quadruplicate. For sample collection, 15 μL of buffer and 45 μL of matrix were sampled from the dialysis device into a 96-deep well plate and matrix-matched with either blank buffer or matrix. The samples were then quenched with 200 μL of cold acetonitrile containing internal standard (tolbutamide 30 nM and carbamazepine 12 nM) to precipitate proteins. Next, the plates were sealed and placed on a vortex mixer for 1 min, and then centrifuged (Beckman Coulter, Fullerton, CA, USA) at 3000 rpm for 5 min at room temperature. Lastly, the supernatant was transferred to a new 96-well plate, fully dried down under nitrogen gas, reconstituted with 200 µL of 50/50 (v/v) HPLC grade water/acetonitrile, and vortexed for 1 min prior to LC-MS/MS analysis.
(§2) LC-MS/MS analyses were performed on a SCIEX Triple Quad 5500 mass spectrometer (SCIEX, Concord, ON, Canada) equipped with Turbo Ion Spray interface. […] All instruments were controlled and synchronized by SCIEX Analyst software (version 1.6.3). Mobile phases compositions were 0.1% formic acid in water (mobile phase A) and 0.1% formic acid in acetonitrile (mobile phase B). […] The column was equilibrated at 5% B for 0.5 min before injecting samples. The total run time for each injection was 6 min. The chromatographic separation was conducted on a Phenomenex Kinetex C18 100Å 30 × 2.1 mm column (Torrance, CA, USA) with a flow rate of 0.5 mL/min. The injection volume for each sample was 5 µL. Multiple-reaction-monitoring (MRM) mode using specific precursor/product ion transitions was used for quantification. Data processing was performed using SCIEX Analyst software (version 1.6.3).
(§3) The calculations for fu are shown in Equations (1) and (2), where D is the dilution factor and fu,d is the diluted fu shown below. All calculations are based on area ratios (analyte peak area/IS peak area), and MS responses used for calculations were all in linear ranges. […] (1) Diluted fud=Receiver Area Ratio/Donor Area Ratio (2) Undiluted fu=1/D/1/fu,d−1+1/D
(§4) Albumin concentrations for rodents have been reported in the literature as rat: 3.0 g/dL; CD-1 mice: 2.7 g/dL; C57BL/6 mice: 2.9 g/dL [53].

mouse (C57BL/6) plasma = test: Presaturation equilibrium dialysis, fraction unbound in C57BL/6 mouse plasma; type: in vitro ADME; settings: 5 μM PFAS, 18 h, 37 °C, value (CV)
Procedure: (§5) Each PFAS:matrix combination was assessed in quadruplicate.
(§6) The injection volume for each sample was 5 µL.

human plasma = test: Presaturation equilibrium dialysis, fraction unbound in human plasma; type: in vitro ADME; settings: 5 μM PFAS, 18 h, 37 °C, value (CV)
Procedure: as §5, §6

mouse (CD-1) plasma = test: Presaturation equilibrium dialysis, fraction unbound in CD-1 mouse plasma; type: in vitro ADME; settings: 5 μM PFAS, 18 h, 37 °C, value (CV)
Procedure: as §5, §6

[1] = molecular target: T1, human serum albumin (HSA) (Homo sapiens, UniProt P02768); test: Presaturation equilibrium dialysis, fraction unbound in human serum albumin solution; type: in vitro ADME; settings: 4% human serum albumin in PBS, 5 μM PFAS, value (CV); for fraction unbound at 18 h, 5 µM: 4% human serum albumin (HSA) solution, read-out: Fraction Unbound (fu) and Coefficient of Variance (CV), HSA
T1 construct: purchased Sigma-Aldrich
T1 sequence (P02768 25-609): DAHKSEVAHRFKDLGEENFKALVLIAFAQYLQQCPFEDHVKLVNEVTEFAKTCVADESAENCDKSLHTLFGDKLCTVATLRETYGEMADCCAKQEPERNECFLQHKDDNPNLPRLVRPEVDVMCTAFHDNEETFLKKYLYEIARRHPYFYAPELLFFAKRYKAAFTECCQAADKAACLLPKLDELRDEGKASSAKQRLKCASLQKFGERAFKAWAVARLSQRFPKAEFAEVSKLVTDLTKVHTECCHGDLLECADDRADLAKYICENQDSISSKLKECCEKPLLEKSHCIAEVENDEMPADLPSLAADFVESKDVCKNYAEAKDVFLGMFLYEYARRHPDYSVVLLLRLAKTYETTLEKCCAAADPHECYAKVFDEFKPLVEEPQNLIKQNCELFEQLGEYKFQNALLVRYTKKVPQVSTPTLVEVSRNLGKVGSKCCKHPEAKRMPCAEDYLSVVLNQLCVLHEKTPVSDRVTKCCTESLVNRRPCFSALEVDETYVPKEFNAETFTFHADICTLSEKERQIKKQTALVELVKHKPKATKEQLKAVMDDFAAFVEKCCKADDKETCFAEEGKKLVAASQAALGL
Procedure: as §5, §6

rat (Wistar-Han) plasma = test: Presaturation equilibrium dialysis, fraction unbound in rat plasma; type: in vitro ADME; settings: 5 μM PFAS, 18 h, 37 °C, value (CV)
Procedure: as §5, §6

[2] = molecular target: mouse serum albumin (MSA) (Mus musculus, UniProt P07724); test: Presaturation equilibrium dialysis, fraction unbound in mouse serum albumin solution; settings: for fraction unbound at 18 h, 5 µM: mouse
Chain of mouse serum albumin (MSA) (P07724 25-608): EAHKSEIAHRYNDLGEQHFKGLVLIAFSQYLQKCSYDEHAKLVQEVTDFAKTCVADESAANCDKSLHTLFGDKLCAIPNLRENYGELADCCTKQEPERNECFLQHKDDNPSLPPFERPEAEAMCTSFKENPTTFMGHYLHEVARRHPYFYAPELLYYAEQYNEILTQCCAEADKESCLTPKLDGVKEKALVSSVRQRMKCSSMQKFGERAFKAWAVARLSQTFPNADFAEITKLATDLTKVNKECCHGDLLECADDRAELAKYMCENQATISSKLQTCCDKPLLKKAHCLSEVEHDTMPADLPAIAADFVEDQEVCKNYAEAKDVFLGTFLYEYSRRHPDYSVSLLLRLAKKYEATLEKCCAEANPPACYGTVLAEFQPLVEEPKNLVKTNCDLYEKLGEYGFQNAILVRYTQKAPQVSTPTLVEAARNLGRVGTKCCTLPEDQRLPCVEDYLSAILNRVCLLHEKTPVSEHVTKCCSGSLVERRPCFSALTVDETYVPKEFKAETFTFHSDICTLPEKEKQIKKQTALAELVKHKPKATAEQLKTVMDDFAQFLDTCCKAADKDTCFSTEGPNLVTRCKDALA
Procedure: as §1, §2, §3, §4

[3] = humans; cited from earlier work
[4] = Presaturation equilibrium dialysis, fraction unbound in C57BL/6 mouse plasma; type: in vitro ADME; settings: 5 μM PFAS, 37 °C, value (CV), read-out: Fraction Unbound (fu) and Coefficient of Variance (CV), C57BL/6 Plasma
Procedure: as §5, §6

[5] = Presaturation equilibrium dialysis, fraction unbound in human plasma; type: in vitro ADME; settings: human, 5 μM PFAS, 37 °C, value (CV), read-out: Fraction Unbound (fu) and Coefficient of Variance (CV), Human Plasma
Procedure: as §5, §6

[6] = Presaturation equilibrium dialysis, fraction unbound in CD-1 mouse plasma; type: in vitro ADME; settings: 5 μM PFAS, 37 °C, value (CV), read-out: Fraction Unbound (fu) and Coefficient of Variance (CV), CD-1 Plasma
Procedure: as §5, §6

[7] = Presaturation equilibrium dialysis, fraction unbound in rat plasma; type: in vitro ADME; settings: Wistar-Han rat plasma, 5 μM PFAS, 37 °C, value (CV), read-out: Fraction Unbound (fu) and Coefficient of Variance (CV), Rat Plasma
Procedure: as §5, §6

[8] = 3% rat serum albumin, value (%CV)
[9] = 4% rat serum albumin in PBS, 5 μM PFAS, value (CV)
[10] = 3% mouse serum albumin, value (%CV)
[11] = 4% mouse serum albumin in PBS, 5 μM PFAS, value (CV)
[12] = 4% rat serum albumin (RSA) solution, Fraction Unbound (fu) and Coefficient of Variance (CV), RSA, 4% rat serum albumin in PBS, 5 μM PFAS, value (CV)
[13] = isolated protein, Fraction unbound (fu) and %CV, RSA 3%, 3% rat serum albumin, value (%CV)
[14] = 4% mouse serum albumin (MSA) solution, Fraction Unbound (fu) and Coefficient of Variance (CV), MSA, 4% mouse serum albumin in PBS, 5 μM PFAS, value (CV)
[15] = isolated protein, Fraction unbound (fu) and %CV, MSA 3%, 3% mouse serum albumin, value (%CV)

Chain of rat serum albumin (RSA) (P02770 25-608): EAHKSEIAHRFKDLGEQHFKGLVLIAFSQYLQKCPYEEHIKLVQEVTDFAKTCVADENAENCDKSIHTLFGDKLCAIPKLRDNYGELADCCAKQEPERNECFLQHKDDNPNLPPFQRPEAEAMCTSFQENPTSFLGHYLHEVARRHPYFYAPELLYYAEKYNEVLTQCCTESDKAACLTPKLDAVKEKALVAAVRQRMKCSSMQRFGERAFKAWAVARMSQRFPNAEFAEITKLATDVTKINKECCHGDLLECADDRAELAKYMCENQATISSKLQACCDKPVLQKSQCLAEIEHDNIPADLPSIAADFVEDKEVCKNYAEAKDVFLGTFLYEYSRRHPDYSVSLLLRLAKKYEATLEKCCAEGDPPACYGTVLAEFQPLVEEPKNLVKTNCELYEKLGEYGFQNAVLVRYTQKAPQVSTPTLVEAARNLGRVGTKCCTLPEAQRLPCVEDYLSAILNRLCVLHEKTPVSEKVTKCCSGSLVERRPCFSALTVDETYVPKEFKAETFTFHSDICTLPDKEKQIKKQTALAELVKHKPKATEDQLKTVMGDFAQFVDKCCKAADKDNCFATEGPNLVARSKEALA

| Compound | Fraction unbound (fu) and %CV, RSA 3% (rat serum albumin (RSA); [8]) | Fraction Unbound (fu) and Coefficient of Variance (CV), RSA (rat serum albumin (RSA); [9]) | Fraction Unbound (fu) and Coefficient of Variance (CV), C57BL/6 Plasma (mouse (C57BL/6) plasma) | Fraction Unbound (fu) and Coefficient of Variance (CV), Human Plasma (human plasma) | Fraction Unbound (fu) and Coefficient of Variance (CV), CD-1 Plasma (mouse (CD-1) plasma) | Fraction Unbound (fu) and Coefficient of Variance (CV), HSA [1] | Fraction Unbound (fu) and Coefficient of Variance (CV), Rat Plasma (rat (Wistar-Han) plasma) | Fraction unbound (fu) and %CV, MSA 3% [2, 10] | Fraction Unbound (fu) and Coefficient of Variance (CV), MSA [2, 11] | half-lives [3] | t1/2 [3] | fraction unbound at 18 h, 5 µM (rat serum albumin (RSA); [12]) | fraction unbound at 18 h, 5 µM (rat serum albumin (RSA); [13]) | fraction unbound at 18 h, 5 µM [4] | fraction unbound at 18 h, 5 µM [5] | fraction unbound at 18 h, 5 µM [6] | fraction unbound at 18 h, 5 µM [1] | fraction unbound at 18 h, 5 µM [7] | fraction unbound at 18 h, 5 µM [2, 14] | fraction unbound at 18 h, 5 µM [2, 15] |
| --- | --- | --- | --- | --- | --- | --- | --- | --- | --- | --- | --- | --- | --- | --- | --- | --- | --- | --- | --- | --- |
| O=S(=O)(O)CCC(F)(F)C(F)(F)C(F)(F)C(F)(F)C(F)(F)C(F)(F)F [6:2 FtS, 6:2 fluorotelomer sulfonate] | 0.00892 (4%) | 0.0111(4%) | 0.0253(2%) | 0.0197(2%) | 0.0255(2%) | 0.00746(0%) | 0.0236(4%) | 0.0091 (9%) | 0.0113(9%) | – | – | – | – | – | – | – | – | – | – | – |
| O=C(O)C(F)(F)C(F)(F)C(F)(F)F [PFBA, Perfluorobutanoic acid] | 0.18 (3%) | 0.216(3%) | 0.767(2%) | – | 0.757(6%) | 0.15(5%) | 0.37(24%) | 0.206 (23%) | 0.24(22%) | 3 days | 3.1 days | – | – | – | – | – | – | – | – | – |
| O=S(=O)(O)C(F)(F)C(F)(F)C(F)(F)C(F)(F)F [PFBS, perfluorobutanesulfonic acid] | 0.0168 (8%) | 0.0208(8%) | 0.28(5%) | – | 0.261(7%) | 0.056(5%) | 0.0542(3%) | 0.0321 (11%) | 0.0396(11%) | 26 days | 26 days | – | – | – | – | – | – | – | – | – |
| O=C(O)C(F)(F)C(F)(F)C(F)(F)C(F)(F)C(F)(F)C(F)(F)C(F)(F)C(F)(F)C(F)(F)C(F)(F)C(F)(F)F [PFDoDA, perfluorododecanoic acid] | – | – | – | – | – | – | – | – | – | – | – | 9.64e-05 | 7.77e-05 | 0.000205 | 0.000105 | 0.000222 | 0.000157 | 7.96e-05 | 0.000217 | 0.000175 |
| O=C(O)C(F)(F)C(F)(F)C(F)(F)C(F)(F)C(F)(F)F [PFHxA, perfluorohexanoic acid] | 0.0212 (4%) | 0.0264(4%) | 0.182(7%) | 0.038(6%) | 0.169(5%) | 0.0336(7%) | 0.0358(7%) | 0.0266 (11%) | 0.0329(11%) | – | – | – | – | – | – | – | – | – | – | – |
| O=S(=O)(O)C(F)(F)C(F)(F)C(F)(F)C(F)(F)C(F)(F)C(F)(F)F [PFHxS, perfluorohexanesulfonic acid] | – | – | – | – | – | – | – | – | – | – | – | 0.000573 | 0.00047 | 0.013 | 0.000695 | 0.0128 | 0.000245 | 0.00076 | 0.00225 | 0.00181 |
| O=S(=O)(O)C(F)(F)C(F)(F)C(F)(F)C(F)(F)C(F)(F)C(F)(F)C(F)(F)C(F)(F)F [PFOS, perfluorooctanesulfonic acid] | 0.000697 (25%) | 0.000852(25%) | 0.00256(8%) | – | – | 0.000524(13%) | 0.00109(4%) | 0.00102 (19%) | 0.00126(19%) | – | 3.3–5.4 years | – | – | – | – | – | – | – | – | – |
| O=C(O)C(F)(F)C(F)(F)C(F)(F)C(F)(F)F [PFPA, perfluoropentanoic acid] | 0.0769 (4%) | 0.0942(4%) | 0.577(5%) | 0.0888(3%) | 0.609(4%) | 0.0933(6%) | 0.18(2%) | 0.0809 (11%) | 0.0987(11%) | – | – | – | – | – | – | – | – | – | – | – |
| O=C(O)C(F)(F)C(F)(F)C(F)(F)C(F)(F)C(F)(F)C(F)(F)C(F)(F)C(F)(F)C(F)(F)C(F)(F)F [PFUDA, perfluoroundecanoic acid] | 0.000147 (28%) | 0.000178(28%) | – | 0.000419(24%) | 0.000524(15%) | 0.000417(23%) | 0.000349(20%) | 0.000417 (19%) | 0.000513(19%) | – | – | – | – | – | – | – | – | – | – | – |
